Results taken from US20260242419A1, “A CYCLIC PEPTIDE FOR TRAPPING INTERLEUKIN-1 BETA” (Merck Sharp & Dohme LLC, priority 2023, published 2026).
Non-standard residues stand in square brackets, D forms with d. Residues, ends and D or L forms follow the SMILES beside them. dPro(4R-(4-pyridylmethyl)) = O=C(O)[C@H]1C[C@@H](Cc2ccncc2)CN1; Trp(βS-Me,4-F) = C[C@@H](c1c[nH]c2cccc(F)c12)[C@H](N)C(=O)O; Bip(4'-COOH) = N[C@@H](Cc1ccc(-c2ccc(C(=O)O)cc2)cc1)C(=O)O; Trp(4-Cl) = N[C@@H](Cc1c[nH]c2cccc(Cl)c12)C(=O)O; Ala(pyrimidin-5-yl) = N[C@@H](Cc1cncnc1)C(=O)O; Phe(4-COOH) = N[C@@H](Cc1ccc(C(=O)O)cc1)C(=O)O; Trp(4-F) = N[C@@H](Cc1c[nH]c2cccc(F)c12)C(=O)O; Bip = N[C@@H](Cc1ccc(-c2ccccc2)cc1)C(=O)O; Pro(cis-4-F) = O=C(O)[C@@H]1C[C@H](F)CN1; d(αMeF) = C[C@@](N)(Cc1ccccc1)C(=O)O; hTyr = N[C@@H](CCc1ccc(O)cc1)C(=O)O; d(αMeD) = C[C@@](N)(CC(=O)O)C(=O)O; 4Pal = N[C@@H](Cc1ccncc1)C(=O)O; aThr = C[C@H](O)[C@H](N)C(=O)O; d(αMeS) = C[C@@](N)(CO)C(=O)O; Dab = NCC[C@H](N)C(=O)O; Nva = CCC[C@H](N)C(=O)O; Aib = CC(C)(N)C(=O)O

molecular target: T1, IL-1β (Homo sapiens, UniProt P01584); experiment: IL-6 assay in MRC5 cells: inhibition of IL-1β induced IL-6 secretion (AlphaLISA); type: cell-based; details: inhibition of IL-1β induced IL-6 secretion in MRC5 cells; compound pre-incubated 1 hour with recombinant human IL-1β; read-out: MRC5 IC50
T1 construct: purchased BioLegend 579404
T1 sequence (P01584 117-269): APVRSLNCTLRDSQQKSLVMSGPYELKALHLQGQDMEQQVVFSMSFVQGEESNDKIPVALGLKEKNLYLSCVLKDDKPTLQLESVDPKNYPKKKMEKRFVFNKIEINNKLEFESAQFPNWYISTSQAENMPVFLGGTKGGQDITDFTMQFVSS
Outline: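 Compound was pre-incubated 1 h at ambient temperature with recombinant human IL-1β at 2λ EC80 before adding human lung fibroblast MRC5 cells (3000/well) in EMEM with 0.025% BSA. After overnight culture at 37 °C, 5% CO2, secreted IL-6 in conditioned medium was measured by AlphaLISA; IC50 from 4-parameter logistic fits.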

Row | Structure (SMILES) | IC50
1 | C[C@@H](c1c[nH]c2cccc(F)c12)[C@@H]1NC(=O)[C@@H]2C[C@H](F)CN2C(=O)CNC(=O)[C@H](Cc2ccc(C(=O)O)cc2)NC(=O)[C@H](Cc2ccncc2)NC(=O)[C@H](Cc2ccc(-c3ccccc3)cc2)NC(=O)[C@H]2C[C@@H](Cc3ccncc3)CN2C(=O)CNC(=O)[C@H](CCN)NC(=O)[C@H](CCC(N)=O)NC(=O)[C@@H](CCC(=O)O)NC(=O)[C@@](C)(CC(=O)O)NC(=O)[C@H](Cc2c[nH]c3ccccc23)NC(=O)[C@H](CO)NC(=O)C(C)(C)NC1=O [Example 249] (cyclo([Bip][4Pal][Phe(4-COOH)]G[Pro(cis-4-F)][Trp(βS-Me,4-F)][Aib]SW[d(αMeD)][dE]Q[Dab]G[dPro(4R-(4-pyridylmethyl))])) | 16 pM
2 | C[C@@H](c1c[nH]c2cccc(F)c12)[C@@H]1NC(=O)[C@@H]2C[C@H](F)CN2C(=O)CNC(=O)[C@H](Cc2ccc(C(=O)O)cc2)NC(=O)[C@H](Cc2ccncc2)NC(=O)[C@H](Cc2ccc(-c3ccccc3)cc2)NC(=O)[C@H]2C[C@@H](Cc3ccncc3)CN2C(=O)CNC(=O)[C@H](CCN)NC(=O)[C@H](CCC(N)=O)NC(=O)[C@@H](CCC(=O)O)NC(=O)C(C)(C)NC(=O)[C@H](Cc2c[nH]c3ccccc23)NC(=O)[C@H](CO)NC(=O)C(C)(C)NC1=O [Example 250] (cyclo([Bip][4Pal][Phe(4-COOH)]G[Pro(cis-4-F)][Trp(βS-Me,4-F)][Aib]SW[Aib][dE]Q[Dab]G[dPro(4R-(4-pyridylmethyl))])) | 27 pM
3 | C[C@@H](c1c[nH]c2cccc(F)c12)[C@@H]1NC(=O)[C@@H]2C[C@H](F)CN2C(=O)CNC(=O)[C@H](Cc2ccc(C(=O)O)cc2)NC(=O)[C@H](Cc2ccncc2)NC(=O)[C@H](Cc2ccc(-c3ccc(C(=O)O)cc3)cc2)NC(=O)[C@H]2C[C@@H](Cc3ccncc3)CN2C(=O)CNC(=O)[C@H](CCN)NC(=O)[C@H](CCC(N)=O)NC(=O)[C@H](Cc2cncnc2)NC(=O)[C@@](C)(CC(=O)O)NC(=O)[C@H](Cc2c[nH]c3cccc(Cl)c23)NC(=O)[C@H](CO)NC(=O)C(C)(C)NC1=O [Example 251] (cyclo([Bip(4'-COOH)][4Pal][Phe(4-COOH)]G[Pro(cis-4-F)][Trp(βS-Me,4-F)][Aib]S[Trp(4-Cl)][d(αMeD)][Ala(pyrimidin-5-yl)]Q[Dab]G[dPro(4R-(4-pyridylmethyl))])) | 13 pM
4 | C[C@@H](c1c[nH]c2cccc(F)c12)[C@@H]1NC(=O)[C@@H]2C[C@H](F)CN2C(=O)CNC(=O)[C@H](Cc2ccc(C(=O)O)cc2)NC(=O)[C@H](Cc2ccncc2)NC(=O)[C@H](Cc2ccc(-c3ccc(C(=O)O)cc3)cc2)NC(=O)[C@H]2C[C@@H](Cc3ccncc3)CN2C(=O)CNC(=O)[C@H](CCN)NC(=O)[C@H](CCC(N)=O)NC(=O)[C@H](Cc2cncnc2)NC(=O)[C@@](C)(CC(=O)O)NC(=O)[C@H](Cc2c[nH]c3cccc(F)c23)NC(=O)[C@H](CO)NC(=O)C(C)(C)NC1=O [Example 252] (cyclo([Bip(4'-COOH)][4Pal][Phe(4-COOH)]G[Pro(cis-4-F)][Trp(βS-Me,4-F)][Aib]S[Trp(4-F)][d(αMeD)][Ala(pyrimidin-5-yl)]Q[Dab]G[dPro(4R-(4-pyridylmethyl))])) | 13 pM
5 | CCC[C@@H]1NC(=O)[C@@](C)(CC(=O)O)NC(=O)[C@H](Cc2c[nH]c3ccccc23)NC(=O)[C@H](CO)NC(=O)C(C)(C)NC(=O)[C@H]([C@@H](C)c2c[nH]c3cccc(F)c23)NC(=O)[C@@H]2C[C@H](F)CN2C(=O)CNC(=O)[C@H](Cc2ccc(C(=O)O)cc2)NC(=O)[C@H](Cc2ccncc2)NC(=O)[C@H](Cc2ccc(-c3ccc(C(=O)O)cc3)cc2)NC(=O)[C@H]2C[C@@H](Cc3ccncc3)CN2C(=O)CNC(=O)[C@H](CCN)NC(=O)[C@H](CCC(N)=O)NC1=O [Example 253] (cyclo([Bip(4'-COOH)][4Pal][Phe(4-COOH)]G[Pro(cis-4-F)][Trp(βS-Me,4-F)][Aib]SW[d(αMeD)][Nva]Q[Dab]G[dPro(4R-(4-pyridylmethyl))])) | 13 pM
6 | CO[C@@H](C)[C@@H]1NC(=O)[C@@](C)(CC(=O)O)NC(=O)[C@H](Cc2c[nH]c3ccccc23)NC(=O)[C@H](CO)NC(=O)C(C)(C)NC(=O)[C@H]([C@@H](C)c2c[nH]c3cccc(F)c23)NC(=O)[C@@H]2C[C@H](F)CN2C(=O)CNC(=O)[C@H](Cc2ccc(C(=O)O)cc2)NC(=O)[C@H](Cc2ccncc2)NC(=O)[C@H](Cc2ccc(-c3ccc(C(=O)O)cc3)cc2)NC(=O)[C@H]2C[C@@H](Cc3ccncc3)CN2C(=O)CNC(=O)[C@H](CCN)NC(=O)[C@H](CCC(N)=O)NC1=O [Example 254] (cyclo([Bip(4'-COOH)][4Pal][Phe(4-COOH)]G[Pro(cis-4-F)][Trp(βS-Me,4-F)][Aib]SW[d(αMeD)][aThr](Me)Q[Dab]G[dPro(4R-(4-pyridylmethyl))])) | 13 pM
7 | CO[C@H](C)[C@@H]1NC(=O)[C@@](C)(CC(=O)O)NC(=O)[C@H](Cc2c[nH]c3ccccc23)NC(=O)[C@H](CO)NC(=O)C(C)(C)NC(=O)[C@H]([C@@H](C)c2c[nH]c3cccc(F)c23)NC(=O)[C@@H]2C[C@H](F)CN2C(=O)CNC(=O)[C@H](Cc2ccc(C(=O)O)cc2)NC(=O)[C@H](Cc2ccncc2)NC(=O)[C@H](Cc2ccc(-c3ccc(C(=O)O)cc3)cc2)NC(=O)[C@H]2C[C@@H](Cc3ccncc3)CN2C(=O)CNC(=O)[C@H](CCN)NC(=O)[C@H](CCC(N)=O)NC1=O [Example 255] (cyclo([Bip(4'-COOH)][4Pal][Phe(4-COOH)]G[Pro(cis-4-F)][Trp(βS-Me,4-F)][Aib]SW[d(αMeD)]T(Me)Q[Dab]G[dPro(4R-(4-pyridylmethyl))])) | 11 pM
8 | C[C@@H](c1c[nH]c2cccc(F)c12)[C@@H]1NC(=O)[C@@H]2C[C@H](F)CN2C(=O)CNC(=O)[C@H](Cc2ccc(C(=O)O)cc2)NC(=O)[C@H](Cc2ccncc2)NC(=O)[C@H](Cc2ccc(-c3ccc(C(=O)O)cc3)cc2)NC(=O)[C@H]2C[C@@H](Cc3ccncc3)CN2C(=O)CNC(=O)[C@H](CCN)NC(=O)[C@H](CCC(N)=O)NC(=O)[C@H](CCc2ccc(O)cc2)NC(=O)[C@@](C)(CC(=O)O)NC(=O)[C@H](Cc2c[nH]c3ccccc23)NC(=O)[C@H](CO)NC(=O)C(C)(C)NC1=O [Example 256] (cyclo([Bip(4'-COOH)][4Pal][Phe(4-COOH)]G[Pro(cis-4-F)][Trp(βS-Me,4-F)][Aib]SW[d(αMeD)][hTyr]Q[Dab]G[dPro(4R-(4-pyridylmethyl))])) | 12 pM
9 | C[C@H](O)[C@@H]1NC(=O)[C@@](C)(Cc2ccccc2)NC(=O)[C@H](Cc2c[nH]c3ccccc23)NC(=O)[C@H](CO)NC(=O)C(C)(C)NC(=O)[C@H]([C@@H](C)c2c[nH]c3cccc(F)c23)NC(=O)[C@@H]2C[C@H](F)CN2C(=O)CNC(=O)[C@H](Cc2ccc(C(=O)O)cc2)NC(=O)[C@H](Cc2ccncc2)NC(=O)[C@H](Cc2ccc(-c3ccc(C(=O)O)cc3)cc2)NC(=O)[C@H]2C[C@@H](Cc3ccncc3)CN2C(=O)CNC(=O)[C@H](CCN)NC(=O)[C@H](CCC(N)=O)NC1=O [Example 257] (cyclo([Bip(4'-COOH)][4Pal][Phe(4-COOH)]G[Pro(cis-4-F)][Trp(βS-Me,4-F)][Aib]SW[d(αMeF)][aThr]Q[Dab]G[dPro(4R-(4-pyridylmethyl))])) | 21 pM
10 | C[C@@H](c1c[nH]c2cccc(F)c12)[C@@H]1NC(=O)[C@@H]2C[C@H](F)CN2C(=O)CNC(=O)[C@H](Cc2ccc(C(=O)O)cc2)NC(=O)[C@H](Cc2ccncc2)NC(=O)[C@H](Cc2ccc(-c3ccc(C(=O)O)cc3)cc2)NC(=O)[C@H]2C[C@@H](Cc3ccncc3)CN2C(=O)CNC(=O)[C@H](CCN)NC(=O)[C@H](CCC(N)=O)NC(=O)[C@H](CCC(=O)O)NC(=O)[C@@](C)(Cc2ccccc2)NC(=O)[C@H](Cc2c[nH]c3ccccc23)NC(=O)[C@H](CO)NC(=O)C(C)(C)NC1=O [Example 258] (cyclo([Bip(4'-COOH)][4Pal][Phe(4-COOH)]G[Pro(cis-4-F)][Trp(βS-Me,4-F)][Aib]SW[d(αMeF)]EQ[Dab]G[dPro(4R-(4-pyridylmethyl))])) | 20 pM
11 | C[C@@H](c1c[nH]c2cccc(F)c12)[C@@H]1NC(=O)[C@@H]2C[C@H](F)CN2C(=O)CNC(=O)[C@H](Cc2ccc(C(=O)O)cc2)NC(=O)[C@H](Cc2ccncc2)NC(=O)[C@H](Cc2ccc(-c3ccc(C(=O)O)cc3)cc2)NC(=O)[C@H]2C[C@@H](Cc3ccncc3)CN2C(=O)CNC(=O)[C@H](CCN)NC(=O)[C@H](CCC(N)=O)NC(=O)[C@H](CC(=O)O)NC(=O)[C@@](C)(Cc2ccccc2)NC(=O)[C@H](Cc2c[nH]c3ccccc23)NC(=O)[C@H](CO)NC(=O)C(C)(C)NC1=O [Example 259] (cyclo([Bip(4'-COOH)][4Pal][Phe(4-COOH)]G[Pro(cis-4-F)][Trp(βS-Me,4-F)][Aib]SW[d(αMeF)]DQ[Dab]G[dPro(4R-(4-pyridylmethyl))])) | 14 pM
12 | COC[C@@]1(C)NC(=O)[C@H](Cc2c[nH]c3ccccc23)NC(=O)[C@H](CO)NC(=O)C(C)(C)NC(=O)[C@H]([C@@H](C)c2c[nH]c3cccc(F)c23)NC(=O)[C@@H]2C[C@H](F)CN2C(=O)CNC(=O)[C@H](Cc2ccc(C(=O)O)cc2)NC(=O)[C@H](Cc2ccncc2)NC(=O)[C@H](Cc2ccc(-c3ccc(C(=O)O)cc3)cc2)NC(=O)[C@H]2C[C@@H](Cc3ccncc3)CN2C(=O)CNC(=O)[C@H](CCN)NC(=O)[C@H](CCC(N)=O)NC(=O)[C@H](Cc2cncnc2)NC1=O [Example 260] (cyclo([Bip(4'-COOH)][4Pal][Phe(4-COOH)]G[Pro(cis-4-F)][Trp(βS-Me,4-F)][Aib]SW[d(αMeS)](Me)[Ala(pyrimidin-5-yl)]Q[Dab]G[dPro(4R-(4-pyridylmethyl))])) | 13 pM
13 | COC[C@@]1(C)NC(=O)[C@H](Cc2c[nH]c3ccccc23)NC(=O)[C@H](CO)NC(=O)C(C)(C)NC(=O)[C@H]([C@@H](C)c2c[nH]c3cccc(F)c23)NC(=O)[C@@H]2C[C@H](F)CN2C(=O)CNC(=O)[C@H](Cc2ccc(C(=O)O)cc2)NC(=O)[C@H](Cc2ccncc2)NC(=O)[C@H](Cc2ccc(-c3ccc(C(=O)O)cc3)cc2)NC(=O)[C@H]2C[C@@H](Cc3ccncc3)CN2C(=O)CNC(=O)[C@H](CCN)NC(=O)[C@H](CCC(N)=O)NC(=O)[C@H]([C@H](C)O)NC1=O [Example 261] (cyclo([Bip(4'-COOH)][4Pal][Phe(4-COOH)]G[Pro(cis-4-F)][Trp(βS-Me,4-F)][Aib]SW[d(αMeS)](Me)[aThr]Q[Dab]G[dPro(4R-(4-pyridylmethyl))])) | 17 pM
